Measurements: BindingDB's records for doi:10.1016/j.ejmech.2014.09.012 (Shandong University, 2014)

Assay: Inhibition of HIV-1 isolate YTA48P HIV-1 gp120

Compound: CC1(C)CC(NC(=O)C(=O)Nc2ccc(Cl)cc2)CC(C)(C)N1 [N-(4-chlorophenyl)-N'-(2,2,6,6-tetramethylpiperidin-4-yl)-oxalamide]
- IC50: 610 nM
